Test results published in patent US20050197350A1, “Novel quinoline, tetrahydroquinazoline, and pyrimidine derivatives and methods of treatment related to the use thereof” (TAISHO PHARMACEUTICAL CO., LTD., priority 2003, published 2005).
pIC50: −log10 of the molar value. Where a name gives a salt, the structure may show the parent alone. Read-outs that look alike come from different tables or passages of the source.

Biological target: MCH receptor (Homo sapiens, UniProt Q99705)
Assay: High throughput functional screening FLIPR/FDSS6000 (intracellular Ca2+ evoked by MCH)
Format: cell-based
Details: FLIPR/FDSS, antagonist activity vs 50 nM MCH, class by percent of control at 10^−7 M or IC50, read-out: class
Source text: High Throughput Functional Screening: FLIPR™
This assay utilized a non-endogenous, constitutively active version of the MCH receptor.
The concentration of free Ca^2+ in the cytosol of any cell is extremely low, whereas its concentration in the extracellular fluid and endoplasmic reticulum (ER) is very high. Thus, there is a large gradient tending to drive Ca^2+ into the cytosol across both the plasma membrane and ER. The FLIPR™ and FDSS6000™ systems (Molecular Devices Corporation, […] Photonics K.K.) are designed to perform functional cell-based assays, such as the measurement of intracellular calcium for high-throughput screening. The measurement of fluorescent is associated with calcium release upon activation of the Gq-coupled receptors.
Fluorometric Imaging Plate Reader system was used to allow for rapid, kinetic measurements of intracellular fluorescence in 96 well microplates (or 384 well microplates). Simultaneous measurements of fluorescence in all wells can be made by FLIPR or FDSS6000™ every second with high sensitivity and precision. These systems are ideal for measuring cell-based functional assays such as monitoring the intracellular calcium fluxes that occur within seconds after activation of the Gq coupled receptor.
Briefly, the cells are seeded into 96 well at 5.5×10^4 cells/well with complete culture media (Dulbecco's Modified Eagle Medium with 10% fetal bovine serum, 2 mM L-glutamine, 1 mM sodium pyruvate and 0.5 mg/ml G418, pH 7.4) for the assay next day. On the day of assay, the media is removed and the cells are incubated with 100 μl of loading buffer (4 μM Fluo4-AM in complete culture media containing 2.5 mM Probenicid, 0.5 mg/ml and 0.2% bovine serum albumin) in 5% CO2 incubator at 37° C. for 1 hr. The loading buffer is removed, and the cells are washed with wash buffer (Hank's Balanced Salt Solution containing 2.5 mM Probenicid, 20 mM HEPES, 0.5 mg/ml and 0.2% bovine serum albumin, pH 7.4)). One hundred fifty μl of wash buffer containing various concentrations of test compound is added to the cells, and the cells are incubated in 5% CO2 incubator at 37° C. for 30 min. […] 530 nm for 290 second. When antagonist activity of compound is tested, 50 nM of MCH is used.
Use of FLIPR™ and FDSS6000™ can be accomplished by following manufacturer's instruction (Molecular Device Corporation and […] Photonics K.K.).

Structure (SMILES) | pIC50 | pIC50 (table after the classification)
CCN(C(=O)N[C@H]1CC[C@@H](Nc2ncc(C)c(N(C)C)n2)CC1)c1ccc(OC(F)(F)F)cc1 [Example 3351, N′-(cis-4-{[4-(dimethylamino)-5-methylpyrimidin-2-yl]amino}cyclohexyl)-N-ethyl-N-[4-(trifluoromethoxy)-phenyl]urea] | > 7.30 | –
Cc1cc(CN[C@H]2CC[C@@H](NC(=O)c3ccc(F)c(F)c3)CC2)nc2ccccc12 [Example 3366, 3,4-difluoro-N-(cis-4-{[(4-methylquinolin-2-yl)methyl]amino}cyclohexyl)benzamide] | < 6.70 | –
Cc1cnc(N[C@H]2CC[C@@H](NC(=O)N(C)c3ccc(Cl)cc3Cl)CC2)nc1N(C)C [Example 3348, N-(2,4-dichlorophenyl)-N′-(cis-4-{[4-(dimethylamino)-5-methylpyrimidin-2-yl]amino}cyclohexyl)-N-methylurea] | > 7.30 | –
Cc1cc(N[C@H]2CC[C@@H](NC(=O)c3c(F)cccc3F)CC2)nc2ccccc12 [Example 3165, 2,6-Difluoro-N-[cis-4-(4-methylquinolin-2-ylamino)-cyclohexyl]-benzamide hydrochloride] | – | 6.70 to 7.30
CN(C)c1ccnc(N[C@H]2CC[C@@H](NC(=O)c3cc(C(C)(C)C)c(O)c(C(C)(C)C)c3)CC2)n1 [Example 3217, 3,5-Di-tert-butyl-N-[cis-4-(4-dimethylamino-pyrimidin-2-ylamino)-cyclohexyl]-4-hydroxy-benzamide hydrochloride] | – | > 7.30
Cn1cc([N+](=O)[O-])cc1C(=O)N[C@H]1CC[C@@H](Nc2ccc3ccccc3n2)CC1 [Example 3042, 1-Methyl-4-nitro-1H-pyrrole-2-carboxylic acid [cis-4-(quinolin-2-ylamino)-cyclohexyl]-amide hydrochloride] | – | > 7.30
CN(CCO)c1ccnc(N[C@H]2CC[C@@H](NC(=O)c3ccc(F)c(F)c3)CC2)n1 [Example 3227, 3,4-Difluoro-N-(cis-4-{4-[(2-hydroxy-ethyl)-methyl-amino]-pyrimidin-2-ylamino}-cyclohexyl)-benzamide hydrochloride] | – | < 6.70
O=C(NC[C@H]1CC[C@@H](Nc2ccc3ccccc3n2)CC1)c1cccnc1Oc1ccccc1 [Example 3069, 2-Phenoxy-N-[cis-4-(quinolin-2-ylamino)-cyclohexylmethyl]-nicotinamide hydrochloride] | – | 6.70 to 7.30
O=C(N[C@H]1CC[C@@H](Nc2ccc3ccccc3n2)CC1)C(c1ccccc1)c1ccccc1 [Example 3052, 2,2-Diphenyl-N-[cis-4-(quinolin-2-ylamino)-cyclohexyl]-acetamide hydrochloride] | – | > 7.30
Cc1cnc(N[C@H]2CC[C@@H](NC(=O)Nc3cc(Cl)ccc3Cl)CC2)nc1N(C)C [Example 3342, N-(2,5-dichlorophenyl)-N′-(cis-4-{[4-(dimethylamino)-5-methylpyrimidin-2-yl]amino}cyclohexyl)urea] | 6.70 to 7.30 | –
Cc1cc(N(C)C)nc(N[C@H]2CC[C@@H](NC(=O)c3cc(F)cc(Cl)c3)CC2)n1 [Example 3384, 3-Chloro-N-[cis-4-(4-dimethylamino6-methyl-pyrimidin-2-ylamino)-cyclohexyl]5-fluoro-benzamide hydrochloride] | – | > 7.30
Cc1cc(N[C@H]2CC[C@@H](NC(=O)c3cccc(F)c3)CC2)nc2ccccc12 [Example 3170, 3-Fluoro-N-[cis-4-(4-methyl-quinolin-2-ylamino)-cyclohexyl]-benzamide hydrochloride] | – | > 7.30
Cc1cc(N[C@H]2CC[C@@H](NC(=O)c3cccc(CO)c3)CC2)nc2ccccc12 [Example 3177, 3-Hydroxymethyl-N-[cis-4-(4-methyl-quinolin-2-ylamino)-cyclohexyl]-benzamide hydrochloride] | – | 6.70 to 7.30
O=C(COc1ccc(F)c(Cl)c1)N[C@H]1CC[C@@H](Nc2ccc3ccccc3n2)CC1 [Example 3064, 2-(3-Chloro-4-fluoro-phenoxy)-N-[cis-4-(quinolin-2-ylamino)-cyclohexyl]-acetamide hydrochloride] | – | > 7.30
Cc1cc(N(C)C)nc(N[C@H]2CC[C@@H](NC(=O)NC3(c4ccc(Cl)cc4)CC3)CC2)n1 [Example 3267, N-[1-(4-chlorophenyl)cyclopropyl]-N′-(cis-4-{[4-(dimethylamino)-6-methylpyrimidin-2-yl]amino}cyclohexyl)urea] | > 7.30 | –
CN(C)c1ccnc(N[C@H]2CC[C@@H](CNC(=O)C3c4ccccc4Oc4ccccc43)CC2)n1 [Example 3221, 9H-Xanthene-9-carboxylic acid [cis-4-(4-dimethylamino-pyrimidin-2-ylamino)-cyclohexylmethyl]-amide hydrochloride] | – | > 7.30
Cc1cc(N[C@H]2CC[C@@H](NC(=O)c3cccnc3Oc3ccc(F)cc3)CC2)nc2ccccc12 [Example 3090, 2-(4-Fluoro-phenoxy)-N-[cis-4-(4-methyl-quinolin-2-ylamino)-cyclohexyl]-nicotinamide hydrochloride] | – | > 7.30
Cc1cnc(N[C@H]2CC[C@@H](NC(=O)Cc3ccc(F)c(F)c3)CC2)nc1N(C)C [Example 3391, 2-(3,4-Difluoro-phenyl)-N-[cis-4-(4-dimethylamino-5-methyl-pyrimidin-2-ylamino)-cyclohexyl]-acetamide hydrochloride] | – | > 7.30
O=C(N[C@H]1CC[C@@H](Nc2cc(Cl)c3ccccc3n2)CC1)c1cccnc1Oc1ccccc1 [Example 3115, N-[cis-4-(4-Chloro-quinolin-2-ylamino)-cyclohexyl]-2-phenoxy-nicotinamide hydrochloride] | – | > 7.30
CN(C)c1ccnc(N[C@H]2CC[C@@H](NC(=O)c3cc(F)cc(F)c3)CC2)n1 [Example 3205, N-[cis-4-(4-Dimethylamino-pyrimidin-2-ylamino)-cyclohexyl]-3,5-difluoro-benzamide hydrochloride] | – | 6.70 to 7.30
Cc1cc(N[C@H]2CC[C@@H](C(=O)N[C@H](C)c3ccccc3C(F)(F)F)CC2)nc2ccccc12 [Example 3313, cis-4-[(4-methylquinolin-2-yl)amino]-N-{(1R)-1-[2-(trifluoromethyl)phenyl]ethyl}cyclohexanecarboxamide] | 6.70 to 7.30 | –
Cc1cc(C)nc(N[C@H]2CC[C@@H](NC(=O)c3cccnc3Oc3ccccc3)CC2)n1 [Example 3143, N-[cis-4-(4,6-Dimethyl-pyrimidin-2-ylamino)-cyclohexyl]-2-phenoxy-nicotinamide hydrochloride] | – | < 6.70
CCN(C(=O)N[C@H]1CC[C@@H](Nc2ncc(C)c(N(C)C)n2)CC1)c1cc(C(F)(F)F)cc(C(F)(F)F)c1 [Example 3354, N-[3,5-bis(trifluoromethyl)phenyl]-N′-(cis-4-{[4-(dimethylamino)-5-methylpyrimidin-2-yl]amino}cyclohexyl)-N-ethylurea] | > 7.30 | –
CN(C)c1cc(N[C@H]2CC[C@@H](CNC(=O)c3ccc(F)c(F)c3)CC2)nc2ccccc12 [Example 3190, N-[cis-4-(4-Dimethylamino-quinolin-2-ylamino)-cyclohexylmethyl]-3,4-difluoro-benzamide hydrochloride] | – | 6.70 to 7.30
COc1ccc(Oc2ncccc2C(=O)N[C@H]2CC[C@@H](Nc3cc(C)c4ccccc4n3)CC2)cc1 [Example 3095, 2-(4-Methoxy-phenoxy)-N-[cis-4-(4-methyl-quinolin-2-ylamino)-cyclohexyl]-nicotinamide hydrochloride] | – | > 7.30
